Article PMC7799360, “Reprogramming immunosuppressive myeloid cells facilitates immunotherapy for colorectal cancer” (EMBO Molecular Medicine, 2020)

How the values were obtained:
[1] = In vitro metabolic stability using liver microsome; format: in vitro ADME; conditions: mouse liver microsome
ADRA1D = molecular target: T1, ADRA1D (Homo sapiens, UniProt P25100); assay: GPCR calcium flux assay; format: cell-based
T1 construct: Pharmaron (Beijing, China) performed the assay

CB1 = CB1 (Homo sapiens, UniProt P21554); assay: LANCE Ultra cAMP assay
human EP3 = human EP3 (Homo sapiens, UniProt P43115); assay: PGE2-induced calcium flux assay in CHO-Gα16 cells; format: cell-based
DRD1 = molecular target: T2, DRD1 (Homo sapiens, UniProt P21728); assay: GPCR calcium flux assay; format: cell-based
T2 construct: Pharmaron (Beijing, China), contract laboratory

CB2 = CB2 (Homo sapiens, UniProt P34972); assay: LANCE Ultra cAMP assay
ADRB2 = molecular target: T3, ADRB2 (Homo sapiens, UniProt P07550); assay: GPCR calcium flux assay; format: cell-based
T3 construct: Pharmaron (Beijing, China) performed the assay

ADRA2A = molecular target: T4, ADRA2A (Homo sapiens, UniProt P08913); assay: GPCR calcium flux assay; format: cell-based
T4 construct: Pharmaron (Beijing, China) performed the assay

other 25 GPCRs = assay: GPCR selectivity (LANCE Ultra cAMP assay and calcium flux assay); conditions: read-out: IC50 on other 25 GPCRs; LANCE Ultra cAMP and calcium flux assays
BB1 = molecular target: T5, BB1 (Homo sapiens, UniProt P28336); assay: GPCR calcium flux assay; format: cell-based
T5 construct: Pharmaron (Beijing, China), contract laboratory
T5 sequence (P28336 whole entry): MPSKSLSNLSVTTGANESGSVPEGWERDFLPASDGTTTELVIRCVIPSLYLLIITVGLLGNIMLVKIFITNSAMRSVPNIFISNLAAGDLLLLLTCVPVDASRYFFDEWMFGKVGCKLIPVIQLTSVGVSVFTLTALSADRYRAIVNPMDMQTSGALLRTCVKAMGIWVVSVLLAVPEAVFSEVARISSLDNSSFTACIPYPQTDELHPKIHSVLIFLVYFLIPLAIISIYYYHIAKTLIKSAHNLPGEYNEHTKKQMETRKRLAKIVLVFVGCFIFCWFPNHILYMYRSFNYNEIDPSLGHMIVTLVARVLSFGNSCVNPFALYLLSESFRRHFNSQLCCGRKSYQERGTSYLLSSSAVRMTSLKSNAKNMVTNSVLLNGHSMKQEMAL

Sequence of CB2 (P34972 whole entry, species assumed): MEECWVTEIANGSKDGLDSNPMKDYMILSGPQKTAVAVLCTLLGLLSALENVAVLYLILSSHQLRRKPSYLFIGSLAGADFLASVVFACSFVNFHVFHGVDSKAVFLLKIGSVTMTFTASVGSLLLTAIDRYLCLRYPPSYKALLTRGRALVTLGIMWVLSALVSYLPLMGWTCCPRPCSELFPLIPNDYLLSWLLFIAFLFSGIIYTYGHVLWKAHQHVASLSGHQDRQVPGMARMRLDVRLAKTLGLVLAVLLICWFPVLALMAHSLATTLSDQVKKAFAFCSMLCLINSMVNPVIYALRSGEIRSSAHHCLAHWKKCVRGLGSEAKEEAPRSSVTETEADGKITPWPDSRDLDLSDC
Sequence of CB1 (P21554 whole entry, species assumed): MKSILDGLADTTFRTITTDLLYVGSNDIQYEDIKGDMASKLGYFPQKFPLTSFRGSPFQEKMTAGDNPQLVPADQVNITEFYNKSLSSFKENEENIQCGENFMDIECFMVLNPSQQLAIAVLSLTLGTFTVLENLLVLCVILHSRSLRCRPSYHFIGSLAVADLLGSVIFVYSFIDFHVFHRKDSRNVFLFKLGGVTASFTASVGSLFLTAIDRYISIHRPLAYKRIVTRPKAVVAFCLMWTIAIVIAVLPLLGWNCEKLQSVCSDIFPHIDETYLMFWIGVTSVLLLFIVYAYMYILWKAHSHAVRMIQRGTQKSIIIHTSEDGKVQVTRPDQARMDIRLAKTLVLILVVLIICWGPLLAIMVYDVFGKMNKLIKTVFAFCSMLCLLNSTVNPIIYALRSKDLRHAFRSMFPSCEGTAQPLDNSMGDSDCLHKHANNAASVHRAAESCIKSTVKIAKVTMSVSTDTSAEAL
Sequence of human EP3 (P43115 1-359 limits assumed): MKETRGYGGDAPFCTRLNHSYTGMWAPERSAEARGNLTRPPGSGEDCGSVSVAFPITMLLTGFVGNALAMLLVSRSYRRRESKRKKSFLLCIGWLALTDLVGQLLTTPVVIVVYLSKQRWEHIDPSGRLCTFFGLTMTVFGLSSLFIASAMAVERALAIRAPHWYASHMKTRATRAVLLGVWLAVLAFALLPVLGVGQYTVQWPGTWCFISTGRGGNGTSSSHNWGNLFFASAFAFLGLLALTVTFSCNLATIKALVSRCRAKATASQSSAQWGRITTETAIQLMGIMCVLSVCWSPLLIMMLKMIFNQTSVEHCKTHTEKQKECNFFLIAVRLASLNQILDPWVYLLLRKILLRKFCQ
T2 sequence (P21728 whole entry, species assumed): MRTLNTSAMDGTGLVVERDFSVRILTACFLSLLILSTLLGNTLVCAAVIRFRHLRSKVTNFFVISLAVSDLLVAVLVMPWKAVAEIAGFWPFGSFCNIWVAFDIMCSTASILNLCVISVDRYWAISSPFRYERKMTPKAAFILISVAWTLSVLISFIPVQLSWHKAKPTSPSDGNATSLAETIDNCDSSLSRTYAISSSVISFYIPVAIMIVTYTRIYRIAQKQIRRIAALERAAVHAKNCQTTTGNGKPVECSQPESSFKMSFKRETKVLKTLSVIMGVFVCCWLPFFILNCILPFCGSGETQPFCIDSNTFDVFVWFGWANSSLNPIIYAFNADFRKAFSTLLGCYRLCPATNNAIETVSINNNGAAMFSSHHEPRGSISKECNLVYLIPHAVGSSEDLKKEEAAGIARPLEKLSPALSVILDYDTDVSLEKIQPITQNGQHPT
T4 sequence (P08913 whole entry, species assumed): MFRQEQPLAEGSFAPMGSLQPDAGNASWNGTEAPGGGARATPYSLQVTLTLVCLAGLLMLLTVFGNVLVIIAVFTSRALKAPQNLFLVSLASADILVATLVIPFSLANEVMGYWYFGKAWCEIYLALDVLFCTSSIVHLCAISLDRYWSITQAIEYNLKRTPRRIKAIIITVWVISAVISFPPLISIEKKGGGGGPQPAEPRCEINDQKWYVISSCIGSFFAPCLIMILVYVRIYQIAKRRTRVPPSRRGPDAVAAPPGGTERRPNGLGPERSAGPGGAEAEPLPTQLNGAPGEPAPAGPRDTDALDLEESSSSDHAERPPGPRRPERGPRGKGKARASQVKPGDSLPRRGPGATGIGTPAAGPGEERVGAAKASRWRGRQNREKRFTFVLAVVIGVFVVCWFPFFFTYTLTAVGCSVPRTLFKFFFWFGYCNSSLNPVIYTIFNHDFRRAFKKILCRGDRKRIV
T1 sequence (P25100 whole entry, species assumed): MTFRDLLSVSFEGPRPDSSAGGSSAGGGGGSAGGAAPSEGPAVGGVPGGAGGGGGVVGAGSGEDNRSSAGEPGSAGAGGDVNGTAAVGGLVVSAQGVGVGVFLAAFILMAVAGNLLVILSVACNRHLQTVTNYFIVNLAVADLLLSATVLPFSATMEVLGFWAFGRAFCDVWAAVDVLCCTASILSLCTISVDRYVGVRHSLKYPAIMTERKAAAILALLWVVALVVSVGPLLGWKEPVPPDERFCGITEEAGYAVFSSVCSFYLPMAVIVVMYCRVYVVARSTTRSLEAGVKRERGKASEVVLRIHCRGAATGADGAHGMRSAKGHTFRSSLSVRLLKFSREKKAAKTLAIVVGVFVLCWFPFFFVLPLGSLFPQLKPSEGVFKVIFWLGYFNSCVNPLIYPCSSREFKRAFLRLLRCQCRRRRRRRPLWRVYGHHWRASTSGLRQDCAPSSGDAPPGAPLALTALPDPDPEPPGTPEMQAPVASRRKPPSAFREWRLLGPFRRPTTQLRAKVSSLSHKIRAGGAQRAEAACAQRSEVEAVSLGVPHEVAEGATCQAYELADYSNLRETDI
T3 sequence (P07550 whole entry, species assumed): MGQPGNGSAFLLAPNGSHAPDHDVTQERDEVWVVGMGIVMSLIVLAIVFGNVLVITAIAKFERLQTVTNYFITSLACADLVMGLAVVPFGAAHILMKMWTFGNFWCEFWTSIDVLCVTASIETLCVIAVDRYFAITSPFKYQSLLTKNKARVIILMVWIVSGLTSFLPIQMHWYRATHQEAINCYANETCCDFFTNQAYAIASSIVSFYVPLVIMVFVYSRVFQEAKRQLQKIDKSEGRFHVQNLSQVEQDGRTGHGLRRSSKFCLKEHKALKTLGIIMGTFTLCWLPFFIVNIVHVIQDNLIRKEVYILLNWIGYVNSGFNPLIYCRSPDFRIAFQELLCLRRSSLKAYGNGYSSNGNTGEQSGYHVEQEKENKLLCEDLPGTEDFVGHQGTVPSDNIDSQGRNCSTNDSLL

C[C@H](NC(=O)c1c(Cc2ccc(F)cc2)sc2c1CCOC2)c1ccc(C(=O)O)cc1 [TP-16] showed a hepatocyte CLint ([1]; liver microsomes) of 5.91 µL/min/1e6 cells, a half-life ([1]; liver microsomes, read-out: In vitro T1/2) of 3.92 h and a CLhep predicted ([1]; liver microsomes, read-out: Predicted hepatic Clint) of 39.3 mL/min/kg. The CLint scaled ([1]; liver microsomes, read-out: Scale-up Clint) was 69.8 mL/min/kg, the “Remaining Percentages at 120 min” value [1] was 70.6% and the IC50 (ADRA1D) was over 10 µM. For the same molecule, the IC50 (CB1) was over 10 µM, the IC50 (human EP3) was over 10 µM and the IC50 (DRD1) was over 10 µM. The IC50 (CB2) was over 10 µM, the IC50 (ADRB2) was over 10 µM and the IC50 (ADRA2A) was over 10 µM. For the same molecule, the IC50 (other 25 GPCRs) was over 10 µM and the IC50 (BB1) was over 10 µM.
